Data on five molecules can be found in patent US7432286B1, “Pharmaceutically active sulfonyl hydrazide derivatives” (Laboratories Serono SA, priority 1999, dated 2008).

Each structure is given as a SMILES string.

One data set concerns the target GST-JNK3 (Homo sapiens, UniProt P53779). As to the kind of experiment: JNK3 in vitro assay (SPA, GST-c-Jun phosphorylation). Particulars: recombinant pre-activated GST-JNK3, 2 μM ATP. It is filed as biochemical. The method, then:
(§1) JNK 2 and 3 in vitro assays: JNK3 and/or 2 assays are performed in 96 well MTT plates, by incubation of 0.5 μg of recombinant, pre-activated GST-JNK3 or GST-JNK2 with 1 μg of recombinant, biotinylated GST-c-Jun and 2 μM ^33γ-ATP (2 nCi/μl), in the presence or absence of sulfonamide inhibitors if formula I and in a reaction volume of 50 μl containing 50 mM Tris-HCl, pH 8.0; 10 mM MgCl2; 1 mM Dithiothreitol, and 100 μM NaVO4. The incubation is performed for 120 min. at R.T and stopped upon addition of 200 μl of a solution containing 250 μg of Streptavidine-coated SPA beads (Amersham, Inc.)*, 5 mM EDTA, 0.1% Triton X-100 and 50 μM ATP, in phosphate saline buffer. After incubation for 60 minutes at RT, beads are sedimented by centrifugation at 1500×g for 5 minutes, resuspended in 200 μl of PBS containing 5 mM EDTA, 0.1% Triton X-100 and 50 μM ATP and the radioactivity measured in a scintillation β counter, following sedimentation of the beads as described above. By substituting GST-c Jun for biotinylated GST-1ATF2 or myelin basic protein, this assay can be used to measure inhibition of preactivated p38 and ERK MAP Kinases, respectively.
(§2) The values indicated in respect of JNK2 and 3, p38 and ERK2 refer to the IC50 (μM), i.e. the amount necessary to achieve 50% inhibition of said target (e.g. JNK2). From the above table it could be derived that said test compounds according to formula I do have a significant effect both on JNK2 and 3, but virtually no effect onto p38 and ERK2, thus delivering a quite selective inhibitory effect.

A further data set relates to Hlr c-Jun HeLa cells. Briefly: C-Jun reporter assay (MEKK1 induced, Dual-Luciferase). Type of data set: cell-based. As to conditions: Homo sapiens. The method, then: Hlr c-Jun HeLa cells are cultured in DMEM High Glc supplemented with 10% FCS (Sigma), 2 mM Glutamine (Gibco), P/S, Hygromycin b 100 μg/mL and G418 250 μg/mL
The cell suspension are diluted with medium to give about 3.5×10^6 cells/mL and […] of cell suspension are put onto 210 cm culture dishes containing 9 mL of culture medium. The plates are incubated at 37° C. in a humidified atmosphere of 5% CO2 in air
• Control: 0.2 μg pTK Renilla, […] pBluescript KS, 500 μl OPTIMEM (GIBCO), 18 μl Fugene 6 • Induced: 0.1 μg pMEKK1, 0.2 μg pTK Renilla, 5.7 μg pBluescript KS, 500 μl OPTIMEM (GIBCO), 18 μl Fugene 630′ RT
The transfection mixture is added to the plated cells. The plates are incubated over night at 37° C. in a humidified atmosphere of 5% CO2 in air
A 96 wells plate containing 100 μl of culture medium per well is prepared Negative control (vehicle): 2 μl of DMSO is added to the 100 μl (in triplicate). Compound: 2 μl of Hit compound stock dilution are added to the 100 μl (in triplicate). The transfected cells are trypsinised and ressuspend in 12 mL of culture medium. 100 μl of the dilution are added to each of the 96 wells plate.
The plate is incubated over night at 37° C. in a humidified atmosphere of 5% CO2 in air
The medium is removed from the plate and the cells washed two times with 100 μl PBS Completely remove the rinse solution before applying PLB reagent. Dispense into each culture well […] of 1X PLB. Place the culture plates on a rocking platform or orbital shaker with gentle
rocking/shaking to ensure complete and even coverage of the cell monolayer with 1X PLB. Rock the culture plates at room temperature for 15 minutes. Transfer 20 μl of the lysate into a white opaque 96 wells plate. Read in a luminometer. • Inject 50 μl of Luciferase Assay Reagent II wait 5″, read 10″ • Inject 50 μl of Stop & Glo® Reagent wait 5″, read 10″
Check RLU Luciferase/RLU Renilla*1000

The next data set addresses p38 (Homo sapiens, UniProt Q16539). Briefly: p38 in vitro kinase assay (SPA, GST-ATF2 substrate). It is filed as biochemical. As to conditions: preactivated p38. The method, then:
as §1, §2

In another data set the target is GST-JNK2 (Homo sapiens, UniProt P45984). As to the kind of experiment: JNK2 in vitro assay (SPA, GST-c-Jun phosphorylation). Type of data set: biochemical. As to conditions: recombinant pre-activated GST-JNK2, 2 μM ATP. The method, then:
as §1, §2

The subject of data set [1] is IL-2 release by Jurkat cells. Briefly: IL-2 release assay (PMA+Ionomycine stimulated, ELISA). As to conditions: Homo sapiens, 24 hours, read-out: % Inhibition of IL2 Production @ 3 uM. Type of data set: cell-based. The method, then: Jurkat cells, a human T cell leukemia cell line (American Type Culture Collection # TIB 152) were cultured in RPMI 1640 medium (Gibco, BRL) supplemented with 10% of heatactivated FCS, Glutamine and Penstrep. The cell suspension in the medium is diluted to give 2.10^6 cells/mL. The cells were plated (2.10^5 cells/well) on a 96-well plate containing different concentration of test compound (final concentration of compounds, 10, 3, 1, 0.3, 0.1 μM). This mixture is incubated 30 minutes at 37° C. in a humidified CO2 atmosphere. Cells were then treated with 10 ul PMA+Ionomycine (0.1 μM and 1 μM final concentration) in all wells except negative control. In wells without compounds, 10 μl of RPMI 2% DMSO (=0.1% final) is added. Cells are incubated 24 hours at 37° C. and then the supernatant harvested (freeze at −20° C. if not used the same day) prior to performing IL-2 ELISA test on the supernatant.
IL-2 release into the medium by PMA+Iono-stimulated Jurkat cells, in presence or absence of test compounds is assayed by ELISA. Following the procedure described below
Transfer 100 μl capture antibody diluted in PBS at 5 μg/mL into a 96 well ELISA plate and incubate overnight at room temperature.
Aspirate each well and wash 3 times with Wash buffer. After the last wash, damp the plate.
1. Saturate with 200 μl PBS-10% FCS. Incubate 1 hour at room temperature.
2. Repeat the wash step 2.
• 1. Add 100 μl of sample or standard (2000, 1000, 500, 250, 125, 62.5, 31.25 pg/mL) and incubate 2 hours at room temperature. • 2. Wash 3 times. • 3. Add 100 μl of biotinylated anti-human IL-2 at 12.5 ng/mL. Incubate 2 hours at room temperature. • 4. Wash 3 times. • 5. Add 100 μl streptavidin-HRP (Zymed #43-4323) at 1:10,000. Incubate 30 minutes at room temperature. • 6. Wash 3 times • 7. Add 100 μl substrate solution (citric acid/Na2HPO4 (1:1)+H2O2 1:2000+OPD). Incubate 20-30 minutes at room temperature. • 8. Add 50 μl of stop solution to each well. • 9. Determine optical density using a microtiter plate reader set to 450 nm with correction at 570 nm.
In general terms: In an ELISA, binding on a coated surface is turned into a signal by an enzyme label.

Another data set addresses ERK2 (Homo sapiens, UniProt P28482). As to the kind of experiment: ERK2 in vitro kinase assay (SPA, myelin basic protein substrate). Type of data set: biochemical. As to conditions: preactivated ERK. The method, then:
as §1, §2

Sequence of p38 (Q16539 whole entry): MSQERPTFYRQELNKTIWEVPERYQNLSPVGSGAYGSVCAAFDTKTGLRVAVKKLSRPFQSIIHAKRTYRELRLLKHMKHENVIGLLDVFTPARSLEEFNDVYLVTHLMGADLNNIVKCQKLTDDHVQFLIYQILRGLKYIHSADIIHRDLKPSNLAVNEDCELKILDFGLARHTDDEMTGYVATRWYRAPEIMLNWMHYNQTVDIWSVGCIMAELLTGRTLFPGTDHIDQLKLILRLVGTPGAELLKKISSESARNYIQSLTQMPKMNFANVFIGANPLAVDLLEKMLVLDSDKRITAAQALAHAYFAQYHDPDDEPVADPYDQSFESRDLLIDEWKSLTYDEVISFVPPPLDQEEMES
Sequence of GST-JNK2 (P45984 whole entry): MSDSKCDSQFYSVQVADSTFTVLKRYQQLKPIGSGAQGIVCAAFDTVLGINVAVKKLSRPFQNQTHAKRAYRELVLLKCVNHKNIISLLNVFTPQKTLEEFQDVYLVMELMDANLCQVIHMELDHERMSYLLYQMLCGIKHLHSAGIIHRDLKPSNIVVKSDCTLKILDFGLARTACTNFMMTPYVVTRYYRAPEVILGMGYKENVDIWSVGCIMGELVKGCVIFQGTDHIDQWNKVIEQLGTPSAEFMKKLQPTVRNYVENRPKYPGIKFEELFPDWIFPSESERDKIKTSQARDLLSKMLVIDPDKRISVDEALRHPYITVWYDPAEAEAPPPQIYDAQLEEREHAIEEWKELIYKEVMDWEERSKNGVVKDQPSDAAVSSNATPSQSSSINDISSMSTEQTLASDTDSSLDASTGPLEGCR
Sequence of ERK2 (P28482 whole entry, species assumed): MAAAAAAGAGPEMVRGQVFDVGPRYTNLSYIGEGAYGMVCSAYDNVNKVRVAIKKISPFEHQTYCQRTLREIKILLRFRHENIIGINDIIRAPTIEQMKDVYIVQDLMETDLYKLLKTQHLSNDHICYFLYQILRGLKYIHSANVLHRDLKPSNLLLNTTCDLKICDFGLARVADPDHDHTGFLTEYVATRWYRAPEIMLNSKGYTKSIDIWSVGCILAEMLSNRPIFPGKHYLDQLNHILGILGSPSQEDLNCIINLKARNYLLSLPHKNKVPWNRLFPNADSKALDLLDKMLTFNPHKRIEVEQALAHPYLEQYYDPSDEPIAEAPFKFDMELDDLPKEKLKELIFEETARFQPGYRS
Sequence of GST-JNK3 (P53779 whole entry): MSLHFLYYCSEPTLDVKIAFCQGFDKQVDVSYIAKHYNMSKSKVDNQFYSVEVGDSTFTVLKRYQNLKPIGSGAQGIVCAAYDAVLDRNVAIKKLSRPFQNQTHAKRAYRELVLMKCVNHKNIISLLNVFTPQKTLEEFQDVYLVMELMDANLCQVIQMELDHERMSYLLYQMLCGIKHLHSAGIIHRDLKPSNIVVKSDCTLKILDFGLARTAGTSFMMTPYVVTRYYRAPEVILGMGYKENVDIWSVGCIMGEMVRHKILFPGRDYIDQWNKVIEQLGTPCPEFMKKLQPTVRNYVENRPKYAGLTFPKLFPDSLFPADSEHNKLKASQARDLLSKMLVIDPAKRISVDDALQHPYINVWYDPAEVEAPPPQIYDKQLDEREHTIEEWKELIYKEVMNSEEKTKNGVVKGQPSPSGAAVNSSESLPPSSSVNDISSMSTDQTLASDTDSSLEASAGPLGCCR

The term IC50 denotes the concentration at which inhibition is half-maximal. A word on the inhibition: it is the relative decrease from the control value, in per cent. As for `O=C(NCc1ccc(S(=O)(=O)NNC(=O)c2csc(-c3ccc(C4SCCS4)cc3)n2)s1)c1ccc(Cl)cc1` [Example 1, 4-chloro-N-[(5-{[2-({2-[4-(1,3-dithiolan-2-yl)phenyl]-1,3-thiazol-4-yl}carbonyl)-hydrazino]sulfonyl}thien-2-yl)methyl]benzamide], the IC50 at GST-JNK3 was 0.21 µM; against p38, over 30 µM; at GST-JNK2, 0.37 µM; against ERK2 it was over 30 µM. Moreover, the inhibition at 10 µM with Hlr c-Jun HeLa cells is over 20%. Moreover, the inhibition at 3 µM in data set [1] was over 30%.
Regarding `O=C(NCc1ccc(S(=O)(=O)NNC(=O)c2csc(COc3ccccc3Cl)n2)s1)c1ccc(Cl)cc1` [Example 13, 4-chloro-N-[(5-{[2-({2-[(2-chlorophenoxy)methyl]-1,3-thiazol-4-y1}carbonyl)hydrazino]sulfonyl}thien-2-yl)methyl]benzamide], the half-inhibitory concentration (IC50) at GST-JNK3 is 0.31 µM; at p38, over 30 µM; at GST-JNK2 it was 0.97 µM; on ERK2, over 30 µM. In addition, the inhibition at 10 µM in the data set with Hlr c-Jun HeLa cells was over 20%. Further, in data set [1], the inhibition at 3 µM is over 30%.
One may read the melting point as the temperature of the solid-liquid transition. Consider `O=C(CCCNc1ncc(C(F)(F)F)cc1Cl)NNS(=O)(=O)c1ccc(CNC(=O)c2ccccc2O)s1` [Example 20, N-[(5-{[2-(4-{[3-chloro-5-(trifluoromethyl)pyridin-2-yl]amino}butanoyl)hydrazino]sulfonyl}thien-2-yl)methyl]-2-hydroxybenzamide], for which the melting point is 174.5 to 175.5 °C.
Consider `O=C(CCCNc1ncc(C(F)(F)F)cc1Cl)NNS(=O)(=O)c1ccc(CNC(=O)c2ccc[nH]c2=O)s1` [Example 75, N-[(5-{[2-(4-{[3-chloro-5-(trifluoromethyl)pyridin-2-yl]amino}butanoyl)hydrazino]sulfonyl}thien-2-yl)methyl]-2-oxo-1,2-dihydropyridine-3-carboxamide], for which the IC50 on GST-JNK3 was 0.41 µM; against p38 it was over 30 µM; at GST-JNK2, 0.56 µM; at ERK2, over 30 µM. Besides, the inhibition at 10 µM with Hlr c-Jun HeLa cells was over 20%. Further, in data set [1], the inhibition at 3 µM is over 30%.
Regarding `O=C(CCCNc1ncc(C(F)(F)F)cc1Cl)NNS(=O)(=O)c1ccc(CNC(=O)c2ccc(Cl)cc2)cc1` [Example 80, 4-chloro-N-(4-{[2-(4-{[3-chloro-5-(trifluoromethyl)pyridin-2-yl]amino}butanoyl)hydrazino]sulfonyl}benzyl)benzamide], the IC50 on GST-JNK3 was 0.25 µM; at p38 it was over 30 µM; at GST-JNK2 it was 1.02 µM; against ERK2 it was over 30 µM. The molecule also came in with an inhibition at 10 µM with Hlr c-Jun HeLa cells of over 20%. The inhibition at 3 µM in data set [1] was over 30%.
